Structures can show the parent of a compound that is named as a salt.

Chain of hERG (Q12809 whole entry): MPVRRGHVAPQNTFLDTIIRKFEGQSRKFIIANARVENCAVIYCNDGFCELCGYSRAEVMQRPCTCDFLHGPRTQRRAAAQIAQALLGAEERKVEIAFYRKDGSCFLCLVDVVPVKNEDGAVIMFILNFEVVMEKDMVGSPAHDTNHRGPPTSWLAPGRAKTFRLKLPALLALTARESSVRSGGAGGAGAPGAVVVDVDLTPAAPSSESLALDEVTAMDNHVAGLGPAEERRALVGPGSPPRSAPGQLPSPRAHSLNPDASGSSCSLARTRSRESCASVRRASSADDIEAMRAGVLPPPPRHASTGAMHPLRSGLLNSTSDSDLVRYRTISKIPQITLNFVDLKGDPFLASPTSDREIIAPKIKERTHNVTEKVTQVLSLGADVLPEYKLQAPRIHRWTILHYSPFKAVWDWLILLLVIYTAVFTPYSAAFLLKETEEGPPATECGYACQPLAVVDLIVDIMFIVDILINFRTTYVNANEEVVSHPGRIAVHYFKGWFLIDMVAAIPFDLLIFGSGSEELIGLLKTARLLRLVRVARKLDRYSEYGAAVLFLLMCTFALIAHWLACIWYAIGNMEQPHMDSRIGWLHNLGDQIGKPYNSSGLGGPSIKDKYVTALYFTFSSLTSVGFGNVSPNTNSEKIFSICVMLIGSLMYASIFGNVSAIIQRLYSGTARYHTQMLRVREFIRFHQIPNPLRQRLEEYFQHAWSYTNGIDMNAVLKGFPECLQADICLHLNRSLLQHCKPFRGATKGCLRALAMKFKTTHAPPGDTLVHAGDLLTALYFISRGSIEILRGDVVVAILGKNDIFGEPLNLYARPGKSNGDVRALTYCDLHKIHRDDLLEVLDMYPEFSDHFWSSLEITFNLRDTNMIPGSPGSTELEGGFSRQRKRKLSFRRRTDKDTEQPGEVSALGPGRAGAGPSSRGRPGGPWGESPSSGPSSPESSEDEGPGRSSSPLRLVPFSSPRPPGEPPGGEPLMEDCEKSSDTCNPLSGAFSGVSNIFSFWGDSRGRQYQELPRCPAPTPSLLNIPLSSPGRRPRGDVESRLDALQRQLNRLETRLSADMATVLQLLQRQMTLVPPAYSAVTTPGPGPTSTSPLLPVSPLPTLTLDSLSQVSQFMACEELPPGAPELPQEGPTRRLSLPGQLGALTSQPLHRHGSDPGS

The first experiment concerns the target hERG (Homo sapiens, UniProt Q12809). As to the kind of experiment: cell-based.
Conditions: not given
The compound `O[C@@H](COc1cccc2ncccc12)CN1CCN([C@@H]2c3ccccc3[C@@H]3[C@H](c4ccccc42)C3(F)F)CC1` [LY335979 trihydrochloride] gave an IC50 of 12 µM.

Still in this experiment, the particulars now being: (-LOG10(IC50), µM).
As for `CCCCCCOC(=O)c1ccccc1O` [Hexyl salicylate], the half-inhibitory concentration (IC50) is 18.8 µM.
The same measure, in the same setting: with `CN1CCCN(C(c2ccccc2)c2ccc(Cl)cc2)CC1` (stereo not shown) [Homochlorcyclizine] the figure was 1.83 µM; with `CCN(CC)CCNc1ccc(CO)c2sc3ccccc3c(=O)c12` [Hycanthone], 10.7 µM.
Still for that read-out and setting: with `COc1ccc2c(c1OC)C(=O)O[C@@H]2[C@H]1c2cc3c(cc2CCN1C)OCO3` [Hydrastine] the figure was 20.8 µM; with `CC(C)Cc1ccc(C(C)C(=O)OCc2ccccn2)cc1` (stereo not shown) [Ibuprofen piconol], 16.3 µM; with `CC(C(O)c1ccc(O)cc1)N1CCC(Cc2ccccc2)CC1` (stereo not shown) [Ifenprodil], 7 µM.
For `COc1cc(C(C)=O)ccc1OCCCN1CCC(c2noc3cc(F)ccc23)CC1` [Iloperidone], the IC50 is 1.4 µM.
With `C=CCOC(Cn1ccnc1)c1ccc(Cl)cc1Cl` (stereo not shown) [Imazalil sulfate], the IC50 is 21.3 µM.
Same read-out and setting: with `C=CCOC(Cn1ccnc1)c1ccc(Cl)cc1Cl` (stereo not shown) [Imazalil] the figure was 29.8 µM; with `Cc1c(C)n(Cc2ccccc2)c2ccc(C(=O)OCCN(C)C)cc12` [Indocate], 14.2 µM.
The same measure, in the same setting: the same measure for `O=C(NC1CCN(CCc2c[nH]c3ccccc23)CC1)c1ccccc1` [Indoramin hydrochloride]: 4.42 µM; for `COP(=S)(OC)Oc1cc(Cl)c(I)cc1Cl` [Iodenphos]: 45.3 µM.
`CC(C)C1CCC(Cc2ccc(Cl)cc2)C1(O)Cn1cncn1` (stereo not shown) [Ipconazole] had an IC50 of 34.3 µM.
`O=C1c2ccccc2S(=O)(=O)N1CCCCN1CCN(c2ncccn2)CC1` [Ipsapirone]: it took 16.9 µM to reach half-maximal inhibition (IC50).
Still for that read-out and setting: the same measure for `CC(C)CCOC(=O)C=Cc1ccccc1` [Isoamyl cinnamate]: 39.1 µM.
Same read-out and setting: the same measure for `CC(C)COC(=O)C=Cc1ccccc1` [Isobutyl 3-phenylacrylate]: 50.9 µM; for `CC(C)COC(=O)COc1cc(Cl)c(Cl)cc1Cl` [Isobutyl (2,4,5-trichlorophenoxy)acetate]: 41.1 µM.
On the same count and under the same terms, the same measure for `CC(=O)C1(C)CC2=C(CCCC2(C)C)CC1C` (stereo not shown) [Isocyclemone E]: 40 µM; for `Cc1nnc2n1-c1sc(CCc3ccc(CC(C)C)cc3)cc1C(c1ccccc1Cl)=NC2C` (stereo not shown) [Israpafant]: 19 µM; for `CN1[C@@H]2CC[C@H]1C[C@@H](NC(=O)n1c(=O)[nH]c3ccccc31)C2` [Itasetron]: 21.3 µM.
As for `O=C1C2(Cl)C3(Cl)C4(Cl)C(Cl)(Cl)C5(Cl)C3(Cl)C1(Cl)C5(Cl)C24Cl` (stereo not shown) [Kepone], it took 12.7 µM to reach half-maximal inhibition (IC50).
Same read-out and setting: with `O=C(c1ccc(F)cc1)C1CCN(CCn2c(=O)[nH]c3ccccc3c2=O)CC1` [Ketanserin] the figure was 2.68 µM; with `Cc1c(OCC(F)(F)F)ccnc1C[S+]([O-])c1nc2ccccc2[nH]1` (stereo not shown) [Lansoprazole], 43.6 µM; with `CCCCCCCCCCCCN(CCO)CCO` [Lauryldiethanolamine], 11.8 µM.
For `COC(=O)C1=C(C)NC(COC(N)=O)=C(C(=O)OC(C)C)C1c1cccc(Cl)c1Cl` (stereo not shown) [Lemildipine], it took 23.9 µM to reach half-maximal inhibition (IC50).
Still for that read-out and setting: the same measure for `COC(=O)C1=C(C)NC(C)=C(C(=O)OC(C)(C)CN(C)CCC(c2ccccc2)c2ccccc2)C1c1cccc([N+](=O)[O-])c1` (stereo not shown) [Lercanidipine hydrochloride]: 3.25 µM.
Same read-out and setting: the same measure for `CC(C)=CCC[C@](C)(O)[C@@H]1CC=C(C)CC1` [Levomenol]: 38.9 µM; for `C[C@@H]1CC(=O)NN=C1c1ccc(NN=C(C#N)C#N)cc1` [Levosimendan]: 5.67 µM.
As to `C=CC(C)(CCC=C(C)C)OC(=O)c1ccccc1` (stereo not shown) [Linalyl benzoate], the 50% inhibitory concentration (IC50) is 20.3 µM.
Still for that read-out and setting: the same measure for `COc1ccc(CN2CCN(C(c3ccc(F)cc3)c3ccc(F)cc3)CC2)c(OC)c1OC` [Lomerizine dihydrochloride]: 0.849 µM.
The same measure, in the same setting: the same measure for `CCCCCN(CCCCC)C(=O)C(CCC(=O)O)NC(=O)c1ccc(Cl)c(Cl)c1` (stereo not shown) [Lorglumide sodium]: 9.52 µM; for `CN1CCN(C2=Nc3ccccc3Oc3ccc(Cl)cc32)CC1` [Loxapine succinate]: 12 µM; for `N#C/C(=C1/SC[C@@H](c2ccc(Cl)cc2Cl)S1)n1ccnc1` [Luliconazole]: 3.13 µM.
On the same count and under the same terms, with `CCCCN(CCCC)CC(O)c1cc(Cl)cc2c1-c1ccc(Cl)cc1/C2=C/c1ccc(Cl)cc1` (stereo not shown) [Lumefantrine] the figure was 3.65 µM.
As for `CCn1nc(Cc2ccccc2)cc1C1CCN(C[C@H]2C[C@H](N(C)[C@@H](C(=O)O)C(C)C)C[C@@H]2c2cccc(F)c2)CC1` [MK-578], the IC50 was 20.3 µM.
Same read-out and setting: the same measure for `CN(C)c1ccc(C(=C2C=CC(=[N+](C)C)C=C2)c2ccccc2)cc1` [Malachite green oxalate]: 3.51 µM; for `CN(C)c1ccc(C(=C2C=CC(=[N+](C)C)C=C2)c2ccccc2)cc1` [Malachite green]: 4.25 µM; for `COC(=O)C1=C(C)NC(C)=C(C(=O)OCCN2CCN(C(c3ccccc3)c3ccccc3)CC2)C1c1cccc([N+](=O)[O-])c1` (stereo not shown) [Manidipine dihydrochloride]: 7 µM.
The compound `CN1C2CCC(C)(C)C1CC(OC(=O)C(O)(c1cccs1)c1cccs1)C2` (stereo not shown) [Mazaticol] showed an IC50 of 21.3 µM.
Same read-out and setting: with `CC(Cc1ccccc1)NCCCCl` (stereo not shown) [Mefenorex] the figure was 16.3 µM; with `CCOC(=O)C1=NN(c2ccc(Cl)cc2Cl)C(C)(C(=O)OCC)C1` (stereo not shown) [Mefenpyr-diethyl], 46.2 µM; with `COC(=O)[C@H]1[C@H]2C[C@@H]3c4[nH]c5cc(OC)ccc5c4CCN3C[C@H]2C[C@@H](OC(=O)COc2ccc(OC)cc2)[C@@H]1OC` [Mefeserpine], 0.786 µM.
The same measure, in the same setting: the same measure for `CCCCC/C=C\C/C=C\CCCCCCCC(=O)NC(C)c1ccccc1` (stereo not shown) [Melinamide]: 21.3 µM; for `Cc1cc(O)c2ccccc2c1O` [Menadiol]: 2.68 µM.
Same read-out and setting: the same measure for `CC1=CC(=O)c2ccccc2C1=O` [Menadione]: 7.28 µM; for `CC1CCC(C(C)C)C(OC(=O)c2ccccc2N)C1` (stereo not shown) [Menthyl anthranilate]: 30.5 µM; for `N#Cc1ccc(CC(=NNC(=O)Nc2ccc(OC(F)(F)F)cc2)c2cccc(C(F)(F)F)c2)cc1` [Metaflumizone]: 13.3 µM.
On to `CC1(C)CCC(Cc2ccc(Cl)cc2)C1(O)Cn1cncn1` (stereo not shown) [Metconazole], for which the IC50 is 50.9 µM.
Still for that read-out and setting: with `COc1ccc(C(c2ccc(OC)cc2)C(Cl)(Cl)Cl)cc1` [Methoxychlor] the figure was 20.5 µM; with `Cc1cc(C(C)(C)CC(C)(C)C)ccc1OCCOCC[N+](C)(C)Cc1ccccc1` [Methylbenzethonium chloride], 0.756 µM; with `N#CSCSC#N` [Methylene bis(thiocyanate)], 50.1 µM.
Regarding `CCCCCCCC[N+](C)(CCCCCCCC)CCCCCCCC` [Methyltrioctylammonium chloride], the IC50 was 0.616 µM.
Still for that read-out and setting: the same measure for `CSc1ccc2c(c1)C(N1CCN(C)CC1)Cc1ccccc1S2` (stereo not shown) [Metitepine]: 1.15 µM; for `CN1CCCC(CC2c3ccccc3Sc3ccccc32)C1` (stereo not shown) [Metixene hydrochloride]: 4.77 µM.
Same read-out and setting: with `COc1ccc(C(=O)c2ccc(C)cc2)c(O)c1` [Mexenone] the figure was 45.9 µM; with `CCCCCCCCCCCCCCCCCCNC(=O)OC1CCN(C(=O)OC[C@H](COC(=O)N(Cc2cccc[n+]2CC)C(=O)c2ccccc2OC)OC)CC1` [Minopafant], 19 µM.
Still for that read-out and setting: with `CN(c1nccc(=O)[nH]1)C1CCN(c2nc3ccccc3n2Cc2ccc(F)cc2)CC1` [Mizolastine] the figure was 2.21 µM; with `O=C(CCCN1CCN(c2ccc(F)cc2)CC1)NC1c2ccccc2CSc2ccccc21` (stereo not shown) [Monatepil], 2.01 µM.
For the compound `Cc1ccsc1/C=C/C1=NCCCN1C` [Morantel tartrate], inhibition was half-maximal at 19.7 µM (IC50).
Take `O=C(OCCN1CCOCC1)c1cccnc1Nc1cccc(C(F)(F)F)c1` [Morniflumate]: the IC50 was 10.3 µM.
With `O=C1NC2CCCCN2C12CCN(CCCN1c3ccccc3CCc3ccc(Cl)cc31)CC2` (stereo not shown) [Mosapramine], the concentration for half-maximal inhibition (IC50) is 0.882 µM.
Same read-out and setting: the same measure for `COc1c(C(C)(C)C)cc([N+](=O)[O-])c(C)c1[N+](=O)[O-]` [Musk ambrette]: 20.5 µM.
On to `CCCCCCCCCCCCCCNCCO` [Myralact], for which half-maximal inhibition (IC50) required 12.5 µM.
The same measure, in the same setting: with `CCCCCCCCCCCCCC[N+](C)(C)C` [Myristyltrimethylammonium chloride] the figure was 15 µM; with `O=C1C=CC(=O)N1c1cccc(N2C(=O)C=CC2=O)c1` [N,N'-1,3-Phenylenedimaleimide], 49 µM; with `CCC(C)Nc1ccc(NC(C)CC)cc1` (stereo not shown) [N,N'-Bis(1-methylpropyl)-1,4-benzenediamine], 12.5 µM.
The same measure, in the same setting: the same measure for `c1ccc(Nc2ccc(Nc3ccccc3)cc2)cc1` [N,N'-Diphenyl-p-phenylenediamine]: 41 µM.
Still for that read-out and setting: with `CCCCCCCCCCCCCCCCCC[N+](C)(C)C` [N,N,N-Trimethyloctadecan-1-aminium chloride] the figure was 17.4 µM.
In the case of `CCN(CC)c1ccc(N)cc1` [N,N-Diethyl-p-phenylenediamine], the IC50 is 35.6 µM.
On to `CCCCCCCCCCCCCCCCCC[N+](C)(C)Cc1ccccc1` [N,N-Dimethyl-N-benzyl-N-octadecylammonium chloride], for which the IC50 is 4.41 µM.
On the same count and under the same terms, the same measure for `CCCCCCC(C)Nc1ccc(Nc2ccccc2)cc1` (stereo not shown) [N-(1-Methylheptyl)-N'-phenyl-1,4-benzenediamine]: 34.7 µM; for `NCCNc1cccc2ccccc12` [N-(1-Naphthyl)ethylenediamine dihydrochloride]: 40.2 µM.
Same read-out and setting: with `CC(C)CC(C)N(c1ccccc1)c1ccc(N)cc1` (stereo not shown) [N-(4-Methylpentan-2-yl)-N-phenylbenzene-1,4-diamine] the figure was 27.5 µM; with `CCN(CCN)c1cccc(C)c1` [N-Ethyl-N-(3-methylphenyl)ethane-1,2-diamine], 49 µM.
Take `CC(C)Nc1ccc(Nc2ccccc2)cc1` [N-Isopropyl-N'-phenyl-p-phenylenediamine]: 28.5 µM corresponded to half-maximal inhibition (IC50).

The IC50 is the concentration needed to halve the response being measured. Read a low IC50 as greater potency in that assay.
